From PubChem BioAssay (NCI)
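Results reflect a 48-hour exposure of cells in 96-well plates to compound at five concentrations. GI50 marks 50% less growth. The concentration for full growth arrest is given as TGI.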

Assays:
Experiment in all cases: inhibition of tumour cell growth, NCI panel, 48 h
HS 578T breast = tested on: HS 578T breast
SN12C renal = tested on: SN12C renal
BT-549 breast = tested on: BT-549 breast
RPMI-8226 leukemia = tested on: RPMI-8226 leukemia
PC-3 prostate = tested on: PC-3 prostate
HOP-92 NSCLC = tested on: HOP-92 NSCLC
DU-145 prostate = tested on: DU-145 prostate
MDA-MB-231 breast = tested on: MDA-MB-231 breast
OVCAR-3 ovarian = tested on: OVCAR-3 ovarian
MOLT-4 leukemia = tested on: MOLT-4 leukemia

| SMILES | TGI (HS 578T breast) [µM] | TGI (SN12C renal) [µM] | TGI (BT-549 breast) [µM] | TGI (RPMI-8226 leukemia) [µM] | TGI (PC-3 prostate) [µM] | TGI (HOP-92 NSCLC) [µM] | TGI (DU-145 prostate) [µM] | TGI (MDA-MB-231 breast) [µM] | TGI (OVCAR-3 ovarian) [µM] | GI50 (HS 578T breast) [µM] | GI50 (SN12C renal) [µM] | GI50 (BT-549 breast) [µM] | GI50 (RPMI-8226 leukemia) [µM] | GI50 (MOLT-4 leukemia) [µM] | TGI (MOLT-4 leukemia) [µM] | GI50 (PC-3 prostate) [µM] | GI50 (HOP-92 NSCLC) [µM] | GI50 (DU-145 prostate) [µM] | GI50 (MDA-MB-231 breast) [µM] | GI50 (OVCAR-3 ovarian) [µM] |
| --- | --- | --- | --- | --- | --- | --- | --- | --- | --- | --- | --- | --- | --- | --- | --- | --- | --- | --- | --- | --- |
| c1cncc(C(Nc2cccc3cccnc23)Nc2cccc3cccnc23)c1 | > 100 | > 100 | > 100 | > 100 | > 100 | > 100 | > 100 | > 100 | > 100 | – | – | – | – | – | – | – | – | – | – | – |
| Cc1nn2c(/C=C3/C(=O)Nc4ccc(Cl)cc43)c(-c3ccccc3)nc2s1 | 7.79 | 18.4 | 14.3 | 22.1 | 5.37 | 3.06 | 7.2 | 8.41 | 13 | 2.45 | 3.95 | 3.11 | 2.94 | 6.96 | 37.1 | 1.79 | 0.58 | 2.69 | 2.29 | 2.79 |
| COc1cc2c(OC)c(c1)CCCC1=CC(=O)C=C(CCC2)C1=O | > 100 | > 31.6 | 92.3 | 25.9 | > 100 | 36.6 | > 100 | > 66.4 | 55.1 | – | – | – | – | – | 15.7 | – | – | – | – | – |
| COc1ccc(/C=C(\C#N)c2cc(OC)c3c(c2)OCO3)cc1 | 39.1 | > 100 | 83.2 | 27 | 38.1 | 52.2 | 0.186 | 46.3 | < 0.0136 | 0.01 | 0.0583 | 0.0657 | 0.019 | 0.0402 | > 100 | 0.0101 | 8.09 | 0.0256 | 0.0553 | < 0.01 |
| O=C(CNC(=O)c1cccc2ccccc12)Nc1ccccc1Oc1ccccc1 | > 10 | > 10 | 5.43 | > 10 | > 10 | > 10 | > 10 | > 10 | 0.638 | 0.363 | 0.583 | 0.41 | 0.318 | 0.348 | > 10 | 0.304 | 2.22 | 0.325 | 0.982 | 0.19 |
| CCS(=O)(=O)c1ccc(OC)c(Nc2nccc(N(C)c3ccc4c(C)[nH]nc4c3)n2)c1 | 14.4 | > 25 | 14.5 | > 25 | 22.1 | 3.64 | > 25 | 9.45 | > 25 | 2.69 | 5.23 | 5.76 | 8.35 | 6.71 | > 25 | 5.46 | 0.622 | 8.45 | 3.66 | 7.42 |
| COc1cc(-c2cn(-c3ccc(Cl)cc3)c(=O)[nH]2)cc(OC)c1OC | > 100 | > 100 | > 100 | > 100 | > 100 | > 100 | > 100 | > 100 | > 100 | > 100 | > 100 | > 100 | > 100 | 0.0199 | 8.86 | > 100 | > 100 | > 100 | > 100 | > 100 |
